# In US9492471B2, “Methods of treating a disease or disorder associated with Bruton'S Tyrosine Kinase” (Celgene Avilomics Research, Inc., priority 2013, dated 2016):
# Like-named read-outs stand apart in the source and are kept apart here.
# How the values were obtained:
# Test in all cases: HotSpot kinase profiling
# Type in all cases: biochemical
# PKCeta = molecular target: T1, PKCeta (Homo sapiens, UniProt P24723)
# T1 construct: purchased Reaction Biology Corp
# Summary of the method: (§1)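 P81 filtration radiometric readout; 2 h incubation at room temperature; 0.1% phosphoric acid wash; DMSO negative control; % inhibition, mean of replicate runs.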
# PKCnu/PRKD3 = molecular target: T2, PKCnu/PRKD3 (Homo sapiens, UniProt O94806)
# T2 construct: purchased Reaction Biology Corp
# T2 sequence (O94806 1-890): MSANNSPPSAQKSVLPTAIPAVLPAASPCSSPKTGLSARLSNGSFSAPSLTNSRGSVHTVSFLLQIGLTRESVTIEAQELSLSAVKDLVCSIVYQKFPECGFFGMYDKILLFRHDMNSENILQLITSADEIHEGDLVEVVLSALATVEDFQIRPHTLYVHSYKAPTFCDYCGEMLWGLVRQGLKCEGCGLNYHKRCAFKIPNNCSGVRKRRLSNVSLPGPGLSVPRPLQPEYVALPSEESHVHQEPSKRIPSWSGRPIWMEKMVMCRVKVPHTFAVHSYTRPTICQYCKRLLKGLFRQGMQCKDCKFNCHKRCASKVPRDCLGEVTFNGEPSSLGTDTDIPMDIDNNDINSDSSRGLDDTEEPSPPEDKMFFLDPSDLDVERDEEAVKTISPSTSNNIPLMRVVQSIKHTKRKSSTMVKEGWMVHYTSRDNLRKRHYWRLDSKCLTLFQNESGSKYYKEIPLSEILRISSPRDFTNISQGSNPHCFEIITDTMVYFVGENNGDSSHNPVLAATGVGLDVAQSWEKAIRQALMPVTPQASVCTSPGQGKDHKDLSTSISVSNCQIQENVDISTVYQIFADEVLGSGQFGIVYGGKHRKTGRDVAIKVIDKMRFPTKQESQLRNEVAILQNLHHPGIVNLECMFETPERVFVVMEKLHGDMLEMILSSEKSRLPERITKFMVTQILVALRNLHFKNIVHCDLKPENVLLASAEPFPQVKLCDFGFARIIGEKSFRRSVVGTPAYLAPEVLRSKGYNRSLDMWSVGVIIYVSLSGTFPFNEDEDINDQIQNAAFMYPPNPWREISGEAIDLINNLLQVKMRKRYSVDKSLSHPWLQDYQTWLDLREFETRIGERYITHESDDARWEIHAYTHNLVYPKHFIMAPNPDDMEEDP
# Summary of the method: as §1
# MYLK3 = molecular target: T3, MYLK3 (Homo sapiens, UniProt Q32MK0)
# T3 construct: purchased Reaction Biology Corp
# T3 sequence (Q32MK0 1-819): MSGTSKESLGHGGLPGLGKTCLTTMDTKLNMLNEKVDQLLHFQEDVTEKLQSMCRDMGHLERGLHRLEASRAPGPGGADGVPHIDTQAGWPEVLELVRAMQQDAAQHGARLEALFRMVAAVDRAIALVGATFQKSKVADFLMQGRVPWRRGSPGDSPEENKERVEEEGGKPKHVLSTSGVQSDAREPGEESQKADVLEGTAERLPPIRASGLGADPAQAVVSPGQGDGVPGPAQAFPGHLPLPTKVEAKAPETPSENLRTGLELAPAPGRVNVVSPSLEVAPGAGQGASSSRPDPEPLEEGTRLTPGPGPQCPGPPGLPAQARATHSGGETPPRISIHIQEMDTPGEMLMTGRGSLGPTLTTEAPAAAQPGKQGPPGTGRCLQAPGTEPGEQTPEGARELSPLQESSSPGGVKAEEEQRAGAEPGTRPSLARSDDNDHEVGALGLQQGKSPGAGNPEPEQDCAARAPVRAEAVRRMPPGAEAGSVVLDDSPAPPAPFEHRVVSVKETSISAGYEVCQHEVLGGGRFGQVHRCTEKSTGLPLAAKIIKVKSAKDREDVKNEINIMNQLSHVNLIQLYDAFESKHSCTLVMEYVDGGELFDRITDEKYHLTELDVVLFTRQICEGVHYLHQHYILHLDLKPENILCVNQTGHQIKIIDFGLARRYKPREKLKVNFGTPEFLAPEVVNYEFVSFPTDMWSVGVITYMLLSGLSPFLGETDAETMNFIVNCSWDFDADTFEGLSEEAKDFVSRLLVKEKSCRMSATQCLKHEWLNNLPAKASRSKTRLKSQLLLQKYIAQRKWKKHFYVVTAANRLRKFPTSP
# Summary of the method: as §1
# MEKK3 = molecular target: T4, MEKK3 (Homo sapiens, UniProt Q99759)
# T4 construct: purchased Reaction Biology Corp
# T4 sequence (Q99759 1-626): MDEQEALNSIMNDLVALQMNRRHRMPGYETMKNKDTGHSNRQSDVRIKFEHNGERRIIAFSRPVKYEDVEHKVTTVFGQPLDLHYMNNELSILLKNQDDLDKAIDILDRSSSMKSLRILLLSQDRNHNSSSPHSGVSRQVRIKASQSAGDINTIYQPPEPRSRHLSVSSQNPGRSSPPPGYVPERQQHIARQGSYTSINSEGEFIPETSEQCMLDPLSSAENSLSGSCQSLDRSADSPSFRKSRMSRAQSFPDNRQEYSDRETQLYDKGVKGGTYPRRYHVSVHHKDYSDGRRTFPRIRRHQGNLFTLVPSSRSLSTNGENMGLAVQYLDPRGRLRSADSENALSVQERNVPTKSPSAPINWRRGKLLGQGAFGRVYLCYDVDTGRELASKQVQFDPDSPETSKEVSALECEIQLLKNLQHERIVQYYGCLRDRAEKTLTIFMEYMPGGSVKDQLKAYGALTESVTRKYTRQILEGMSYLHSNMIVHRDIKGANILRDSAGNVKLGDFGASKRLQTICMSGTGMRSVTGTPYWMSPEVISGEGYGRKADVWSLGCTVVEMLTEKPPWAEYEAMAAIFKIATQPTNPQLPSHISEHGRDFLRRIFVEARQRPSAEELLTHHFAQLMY
# Summary of the method: as §1
# [1] = read-out: % Enzyme Activity (relative to DMSO controls) Run 1
# [2] = read-out: % Enzyme Activity (relative to DMSO controls) Run 2
# T1 sequence (P24723 whole entry): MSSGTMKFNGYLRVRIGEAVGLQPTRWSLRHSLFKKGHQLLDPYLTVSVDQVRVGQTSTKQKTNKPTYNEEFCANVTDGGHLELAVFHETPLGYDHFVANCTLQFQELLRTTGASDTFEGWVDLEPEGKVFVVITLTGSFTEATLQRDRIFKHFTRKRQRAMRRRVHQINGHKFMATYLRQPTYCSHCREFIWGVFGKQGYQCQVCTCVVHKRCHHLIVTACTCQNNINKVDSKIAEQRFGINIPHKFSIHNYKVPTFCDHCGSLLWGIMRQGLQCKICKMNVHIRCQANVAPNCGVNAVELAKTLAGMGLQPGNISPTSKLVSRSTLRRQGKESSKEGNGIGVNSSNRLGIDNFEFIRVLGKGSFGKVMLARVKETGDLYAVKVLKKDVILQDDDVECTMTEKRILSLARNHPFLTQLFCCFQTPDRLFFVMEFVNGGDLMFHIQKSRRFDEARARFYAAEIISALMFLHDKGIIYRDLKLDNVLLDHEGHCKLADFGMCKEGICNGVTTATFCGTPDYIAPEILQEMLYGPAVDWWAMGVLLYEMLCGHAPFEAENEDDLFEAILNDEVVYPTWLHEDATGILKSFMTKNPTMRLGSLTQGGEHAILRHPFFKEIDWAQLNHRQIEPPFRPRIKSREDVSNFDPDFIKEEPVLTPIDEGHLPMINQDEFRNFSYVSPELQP
structure (smiles),measurement,setting,value
C=CC(=O)Nc1cccc(Nc2nc(Nc3ccc(OCCOC)c(F)c3)ncc2F)c1 [Compound 2],inhibition at 3 µM,PKCeta,-12.8%
same,remaining activity at 3 µM,PKCeta; [1],109%
same,remaining activity at 3 µM,PKCeta; [2],117%
same,inhibition at 3 µM,PKCnu/PRKD3,20.1%
same,remaining activity at 3 µM,PKCnu/PRKD3; [1],80.1%
same,remaining activity at 3 µM,PKCnu/PRKD3; [2],79.8%
same,inhibition at 3 µM,MYLK3,-15%
same,remaining activity at 3 µM,MYLK3; [1],113%
same,remaining activity at 3 µM,MYLK3; [2],116%
same,inhibition at 3 µM,MEKK3,-4.03%
same,remaining activity at 3 µM,MEKK3; [1],102%
same,remaining activity at 3 µM,MEKK3; [2],106%
